Patent US20250332264A1, “GhR-BINDING PEPTIDE AND COMPOSITION COMPRISING SAME” (priority 2021, published 2025)
Starred links: 1 amine or outer side, 2 acyl side, 3 side chain; linkers in the order of their positions; H or OH if unused. Positions of bridges follow the written chain, without caps; N, C: chain ends. Non-standard residues stand in square brackets, D forms with d. Residues, ends and D or L forms follow the SMILES beside them. Groups on a side chain read outwards from the residue. *: point of attachment. X13 = NC(=O)[C@H](CCCCN*)NC(=O)COCCOCCNC(=O)COCCOCCNC(=O)CC[C@H](NC(=O)CC[C@H](NC(=O)CCCCCCCCCCCCC(=O)O)C(=O)O)C(=O)O; X8 = NC(=O)[C@H](CCCCN*)NC(=O)COCCOCCNC(=O)COCCOCCNC(=O)CC[C@H](NC(=O)CC[C@H](NC(=O)CCCCCCCCCCCCCC(=O)O)C(=O)O)C(=O)O; X6 = NC(=O)[C@H](CCCCN*)NC(=O)CC[C@H](NC(=O)CC[C@H](NC(=O)CCCCCCCCCCCCCC(=O)O)C(=O)O)C(=O)O; X10 = NC(=O)[C@H](CCCCN*)NC(=O)CC[C@H](NC(=O)CC[C@H](NC(=O)CCCc1ccc(I)cc1)C(=O)O)C(=O)O; Trp(1-CH2CO) = O=C([C@H](Cc1cn(CC(=O)[*:3])c2ccccc12)N[*:1])[*:2]; Trp(5-OMe) = COc1ccc2[nH]cc(C[C@H](N)C(=O)O)c2c1; Butanoyl(4-(4-I-phenyl)) = O=C(CCCc1ccc(I)cc1)*; Trp(5-OH) = N[C@@H](Cc1c[nH]c2ccc(O)cc12)C(=O)O; Phe(4-COOH) = N[C@@H](Cc1ccc(C(=O)O)cc1)C(=O)O; Piperazinyl(4-CH2COOH) = O=C(O)CN1CCN(*)CC1; X7 = O=C(O)CN1CCC(N[*:1])(C(=O)[*:2])CC1; γGlu = O=C(O)[C@H](CCC(=O)[*:2])N[*:1]; NMeK = CN[C@@H](CCCCN)C(=O)O; Aib = CC(C)(N)C(=O)O; CO = O=C([*:1])[*:2]

Target: T1, Recombinant human GhR-Fc protein (Homo sapiens, UniProt P10912)
T1 construct: purchased R&D Systems
T1 sequence (P10912 with tags, fused parts or gaps limits assumed): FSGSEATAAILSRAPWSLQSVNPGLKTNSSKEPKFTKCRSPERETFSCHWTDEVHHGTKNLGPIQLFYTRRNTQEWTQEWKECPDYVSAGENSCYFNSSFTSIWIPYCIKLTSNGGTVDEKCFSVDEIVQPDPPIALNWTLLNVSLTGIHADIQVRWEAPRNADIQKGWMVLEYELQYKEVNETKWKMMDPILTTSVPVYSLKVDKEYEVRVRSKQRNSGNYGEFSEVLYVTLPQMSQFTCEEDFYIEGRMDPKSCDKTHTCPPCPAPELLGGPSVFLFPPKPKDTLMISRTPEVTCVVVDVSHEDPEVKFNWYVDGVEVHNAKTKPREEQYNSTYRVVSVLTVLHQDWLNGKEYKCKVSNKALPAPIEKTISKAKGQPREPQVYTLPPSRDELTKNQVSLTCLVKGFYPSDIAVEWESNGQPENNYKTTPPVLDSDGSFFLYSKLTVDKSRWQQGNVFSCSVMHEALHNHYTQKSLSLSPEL
Assay: Binding activity of hGhR binding peptide by surface plasmon resonance (SPR), Biacore T200, single-cycle kinetics
Conditions: human GhR-Fc immobilized on CM5 chip, KD calculated from ka and kd
Method: SPR assay was performed using Biacore T200 (cytiva: Former GE Healthcare). After the equilibration of Series S Sensor Chip CM5 (produced by cytiva: Former GE Healthcare) with Running Buffer (HBS-EP with 1% (v/v) DMSO), an EDC/NHS mixture was injected at a flow rate of 10 μL/min for 7 minutes to thereby activate the functional groups on sensor chip. Recombinant human GhR-Fc protein (R&D Systems) in 10 mM Acetate (pH4.0) was injected immobilized to at a flow rate of 5 μL/min. It took 7 minutes to immobilize the GhR on the substrate surfaces of the sensor chip. Then Ethanolamine was injected at a flow rate of 10 μL/min for 7 minutes. 1M Ethanolamine (aq.) was injected at a flow rate of 10 μL/min for 420 seconds for capping.
Using these Peptide Samples, kinetics of peptides against human GhR-Fc protein were measured. The method adopted for sample measurement was a single-cycle kinetics method. The analysis was conducted using the evaluation software provided with Biacore T200. A DMSO correction curve obtained by solvent correction measurements was applied for the analysis. Kinetics fitting was done on the difference data obtained by subtracting the baseline data from sample measurement data. KD values were calculated based on the association rate constant (ka) and dissociation rate constant (kd).
Furthermore, “obs. m/z [M+2H]2+” indicates the ESI-MS(+) observed value. Unless otherwise specified, this is bivalent ([M+2H]^2+).

Row | SMILES | Kd [nM]
1 | COc1ccc2[nH]cc(C[C@@H]3NC(=O)[C@H](CC(N)=O)NC(=O)[C@H](CO)NC(=O)[C@H](C(C)C)NC(=O)[C@H](C(C)C)NC(=O)[C@H](CCCCNC(=O)CC[C@H](NC(=O)CC[C@H](NC(=O)CCCc4ccc(I)cc4)C(=O)O)C(=O)O)N(C)C(=O)[C@H](Cc4ccc(O)cc4)NC(=O)CSC[C@@H](C(=O)NCC(=O)N4CCC[C@H]4C(=O)N[C@H](CO)C(=O)N[C@H](CO)C(=O)N[C@H](CO)C(N)=O)NC(=O)[C@H](C(C)C)NC(=O)C4(CCN(CC(=O)O)CC4)NC(=O)[C@H](Cc4c[nH]c5ccc(O)cc45)NC(=O)[C@H](CCCCN)NC(=O)[C@H](Cc4ccc(C(=O)O)cc4)NC3=O)c2c1 [Compound 52] ({CH2CO}-Y[NMeK]([γGlu-γGlu-Butanoyl(4-(4-I-phenyl))])VVSN[Trp(5-OMe)][Phe(4-COOH)]K[Trp(5-OH)][X7]VCGP[dS][dS][dS]-NH2; thioether N-13) | 5.47
2 | COc1ccc2[nH]cc(C[C@@H]3NC(=O)[C@H](CC(N)=O)NC(=O)[C@H](CO)NC(=O)[C@H](C(C)C)NC(=O)[C@H](C(C)C)NC(=O)[C@H](CCCCNC(=O)CC[C@H](NC(=O)CCCc4ccc(I)cc4)C(=O)O)N(C)C(=O)[C@H](Cc4ccc(O)cc4)NC(=O)CSC[C@@H](C(=O)NCC(=O)N4CCC[C@H]4C(=O)N[C@H](CO)C(=O)N[C@H](CO)C(=O)N[C@H](CO)C(N)=O)NC(=O)[C@H](C(C)C)NC(=O)C(C)(C)NC(=O)[C@H](Cc4c[nH]c5ccc(O)cc45)NC(=O)[C@H](CCCCNC(=O)N4CCN(CC(=O)O)CC4)NC(=O)[C@H](Cc4ccc(C(=O)O)cc4)NC3=O)c2c1 [Compound 48] ({CH2CO}-Y[NMeK]([γGlu-Butanoyl(4-(4-I-phenyl))])VVSN[Trp(5-OMe)][Phe(4-COOH)]K([CO-Piperazinyl(4-CH2COOH)])[Trp(5-OH)][Aib]VCGP[dS][dS][dS]-NH2; thioether N-13) | 4.35
3 | CC(C)[C@@H]1NC(=O)[C@H](C(C)C)NC(=O)[C@@H]2CCCCNC(=O)Cn3cc(c4ccccc43)C[C@H](NC(=O)[C@H](CC(N)=O)NC(=O)[C@H](CO)NC1=O)C(=O)N[C@@H](Cc1ccc(C(=O)O)cc1)C(=O)N[C@@H](CCCCN)C(=O)N[C@@H](Cc1c[nH]c3ccc(O)cc13)C(=O)NC(C)(C)C(=O)N[C@@H](C(C)C)C(=O)N[C@H](C(=O)NCCCC[C@H](NC(=O)COCCOCCNC(=O)COCCOCCNC(=O)CC[C@H](NC(=O)CC[C@H](NC(=O)CCCCCCCCCCCCC(=O)O)C(=O)O)C(=O)O)C(N)=O)CSCC(=O)N[C@@H](Cc1ccc(C(=O)O)cc1)C(=O)N2C [Compound 62] ({CH2CO}-[Phe(4-COOH)][NMeK]VVSN[Trp(1-CH2CO)][Phe(4-COOH)]K[Trp(5-OH)][Aib]VC-X13; lactam 2-7; thioether N-13) | 3.88

Molecules with a lower Kd, results first:

Row | Kd [nM] | SMILES
4 | 3.7 | CC(C)[C@@H]1NC(=O)[C@H](C(C)C)NC(=O)[C@@H]2CCCCNC(=O)Cn3cc(c4ccccc43)C[C@H](NC(=O)[C@H](CC(N)=O)NC(=O)[C@H](CO)NC1=O)C(=O)N[C@@H](Cc1ccc(C(=O)O)cc1)C(=O)N[C@@H](CCCCN)C(=O)N[C@@H](Cc1c[nH]c3ccc(O)cc13)C(=O)NC(C)(C)C(=O)N[C@@H](C(C)C)C(=O)N[C@H](C(=O)NCCCC[C@H](NC(=O)COCCOCCNC(=O)COCCOCCNC(=O)CC[C@H](NC(=O)CC[C@H](NC(=O)CCCCCCCCCCCCCC(=O)O)C(=O)O)C(=O)O)C(N)=O)CSCC(=O)N[C@@H](Cc1ccc(C(=O)O)cc1)C(=O)N2C [Compound 63] ({CH2CO}-[Phe(4-COOH)][NMeK]VVSN[Trp(1-CH2CO)][Phe(4-COOH)]K[Trp(5-OH)][Aib]VC-X8; lactam 2-7; thioether N-13)
5 | 3.1 | CC(C)[C@@H]1NC(=O)[C@H](C(C)C)NC(=O)[C@@H]2CCCCNC(=O)Cn3cc(c4ccccc43)C[C@H](NC(=O)[C@H](CC(N)=O)NC(=O)[C@H](CO)NC1=O)C(=O)N[C@@H](Cc1ccc(C(=O)O)cc1)C(=O)N[C@@H](CCCCN)C(=O)N[C@@H](Cc1c[nH]c3ccc(O)cc13)C(=O)NC(C)(C)C(=O)N[C@@H](C(C)C)C(=O)N[C@H](C(=O)NCCCC[C@H](NC(=O)CC[C@H](NC(=O)CC[C@H](NC(=O)CCCCCCCCCCCCCC(=O)O)C(=O)O)C(=O)O)C(N)=O)CSCC(=O)N[C@@H](Cc1ccc(C(=O)O)cc1)C(=O)N2C [Compound 60] ({CH2CO}-[Phe(4-COOH)][NMeK]VVSN[Trp(1-CH2CO)][Phe(4-COOH)]K[Trp(5-OH)][Aib]VC-X6; lactam 2-7; thioether N-13)
6 | 1.46 | CC(C)[C@@H]1NC(=O)[C@H](C(C)C)NC(=O)[C@@H]2CCCCNC(=O)Cn3cc(c4ccccc43)C[C@H](NC(=O)[C@H](CC(N)=O)NC(=O)[C@H](CO)NC1=O)C(=O)N[C@@H](Cc1ccc(C(=O)O)cc1)C(=O)N[C@@H](CCCCN)C(=O)N[C@@H](Cc1c[nH]c3ccc(O)cc13)C(=O)NC(C)(C)C(=O)N[C@@H](C(C)C)C(=O)N[C@H](C(=O)NCCCC[C@H](NC(=O)CC[C@H](NC(=O)CC[C@H](NC(=O)CCCc1ccc(I)cc1)C(=O)O)C(=O)O)C(N)=O)CSCC(=O)N[C@@H](Cc1ccc(C(=O)O)cc1)C(=O)N2C [Compound 9] ({CH2CO}-[Phe(4-COOH)][NMeK]VVSN[Trp(1-CH2CO)][Phe(4-COOH)]K[Trp(5-OH)][Aib]VC-X10; lactam 2-7; thioether N-13)
